This note sets out measurements from patent publication US9073855B2, “BCL-2 selective apoptosis-inducing agents for the treatment of cancer and immune diseases” (AbbVie Inc., priority 2008, dated 2015).

Where only a bound is given, the exact number is not on record here.

Experiment [1] concerns the target GST-Bcl-2 (Homo sapiens, UniProt P10415). As to the kind of experiment: TR-FRET binding assay, GST-Bcl-2 with F-Bak peptide probe. The conditions noted are these: for Ki: TR-FRET Binding Affinity; for Binding selectivity ratio (Bcl-XL Ki/Bcl-2 Ki): TR-FRET, Bcl-XL Ki divided by Bcl-2 Ki. The essentials:
(§1)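 Competitive TR-FRET: GST-fusion protein, fluorescent Bak peptide probe and Tb-labelled anti-GST antibody incubated with compound dilution series (starting 50 μM as 2× stock, 10% DMSO) for 3 h at RT. Excitation 340/35 nm; Ki derived via Wang's exact competitive-binding equation.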
On the technique in general: Time-resolved FRET reads energy transfer from a long-lived donor to a nearby acceptor.

The target in experiment [2] is GST-Bcl-XL (Homo sapiens, UniProt Q07817). Nature of the experiment: TR-FRET binding assay, GST-Bcl-XL with F-Bak peptide probe. The note with it: TR-FRET Binding Affinity. The essentials:
as §1

GST-Bcl-XL, sequence (Q07817 whole entry): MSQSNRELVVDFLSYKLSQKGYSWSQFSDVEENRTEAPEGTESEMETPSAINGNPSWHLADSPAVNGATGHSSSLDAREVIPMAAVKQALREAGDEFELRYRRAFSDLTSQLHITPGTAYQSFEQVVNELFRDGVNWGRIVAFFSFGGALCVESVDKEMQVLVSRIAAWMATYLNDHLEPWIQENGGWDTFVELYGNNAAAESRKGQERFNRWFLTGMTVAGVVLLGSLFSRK
GST-Bcl-2, sequence (P10415 whole entry, the tested form may be a part): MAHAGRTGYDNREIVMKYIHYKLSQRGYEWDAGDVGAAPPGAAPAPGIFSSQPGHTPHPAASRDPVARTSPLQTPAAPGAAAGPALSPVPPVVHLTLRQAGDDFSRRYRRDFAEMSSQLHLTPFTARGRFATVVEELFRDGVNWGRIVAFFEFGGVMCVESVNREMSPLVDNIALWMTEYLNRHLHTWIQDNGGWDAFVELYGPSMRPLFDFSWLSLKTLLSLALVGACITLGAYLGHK

In general, Ki refers to a measure of affinity in units of concentration, obtained from inhibition or displacement. Low values mean higher affinity, high ones lower affinity. Turning to `CC1(C)CCC(CN2CCN(c3ccc(C(=O)NS(=O)(=O)c4cnc(OCC5CCC(F)(F)CC5)c(Cl)c4)c(Oc4cccc5[nH]ncc45)c3)CC2)=C(c2ccc(Cl)cc2)C1` [Example 482, N-({5-chloro-6-[(4,4-difluorocyclohexyl)methoxy]pyridin-3-yl}sulfonyl)-4-(4-{[2-(4-chlorophenyl)-4,4-dimethylcyclohex-1-en-1-yl]methyl}piperazin-1-yl)-2-(1H-indazol-4-yloxy)benzamide], in experiment [1], the Ki was determined as 0.064 nM and the “Binding selectivity ratio (Bcl-XL Ki/Bcl-2 Ki)” value (“Binding selectivity ratio” below) worked out at 5442.9. The affinity in experiment [2] corresponds to a Ki of 350 nM.
For `CC1(C)CCC(CN2CCN(c3ccc(C(=O)NS(=O)(=O)c4cnc(OC[C@H]5CC[C@H](C(N)=O)CC5)c(Cl)c4)c(Oc4cccc5[nH]ncc45)c3)CC2)=C(c2ccc(Cl)cc2)C1` [Example 483, N-({6-[(trans-4-carbamoylcyclohexyl)methoxy]-5-chloropyridin-3-yl}sulfonyl)-4-(4-{[2-(4-chlorophenyl)-4,4-dimethylcyclohex-1-en-1-yl]methyl}piperazin-1-yl)-2-(1H-indazol-4-yloxy)benzamide] the same measures were below 0.01 nM, above 563.0 and 5.63 nM.
In the case of `CC1(C)CCC(CN2CCN(c3ccc(C(=O)NS(=O)(=O)c4ccc(NC[C@H]5CC[C@H](C#N)CC5)c([N+](=O)[O-])c4)c(Oc4cccc5[nH]ncc45)c3)CC2)=C(c2ccc(Cl)cc2)C1` [Example 484, 4-(4-{[2-(4-chlorophenyl)-4,4-dimethylcyclohex-1-en-1-yl]methyl}piperazin-1-yl)-N-[(4-{[(trans-4-cyanocyclohexyl)methyl]amino}-3-nitrophenyl)sulfonyl]-2-(1H-indazol-4-yloxy)benzamide], in experiment [1], the Ki was below 0.01 nM and the “Binding selectivity ratio” value is above 3433.9. Further, the Ki in experiment [2] was 34.3 nM.
Take `CC1(C)CCC(CN2CCN(c3ccc(C(=O)NS(=O)(=O)c4cnc(OCCn5ccnc5)c(Cl)c4)c(Oc4cccc5[nH]ncc45)c3)CC2)=C(c2ccc(Cl)cc2)C1` [Example 485, N-({5-chloro-6-[2-(1H-imidazol-1-yl)ethoxy]pyridin-3-yl}sulfonyl)-4-(4-{[2-(4-chlorophenyl)-4,4-dimethylcyclohex-1-en-1-yl]methyl}piperazin-1-yl)-2-(1H-indazol-4-yloxy)benzamide]: the Ki was found to be 0.167 nM in experiment [1] and 54.2 nM in experiment [2]. In experiment [1], the “Binding selectivity ratio” value came out at 324.0.
On the same counts, the results for `Cn1cncc1COc1ncc(S(=O)(=O)NC(=O)c2ccc(N3CCN(CC4=C(c5ccc(Cl)cc5)CC(C)(C)CC4)CC3)cc2Oc2cccc3[nH]ncc23)cc1Cl` [Example 486, N-({5-chloro-6-[(1-methyl-1H-imidazol-5-yl)methoxy]pyridin-3-yl}sulfonyl)-4-(4-{[2-(4-chlorophenyl)-4,4-dimethylcyclohex-1-en-1-yl]methyl}piperazin-1-yl)-2-(1H-indazol-4-yloxy)benzamide] are 0.328 nM, 25.5 nM and 77.6.
On the same counts, the results for `CC1(C)CCC(CN2CCN(c3ccc(C(=O)NS(=O)(=O)c4cnc(OCC5CCOCC5)c(F)c4)c(Oc4cccc5[nH]ncc45)c3)CC2)=C(c2ccc(Cl)cc2)C1` [Example 487, 4-(4-{[2-(4-chlorophenyl)-4,4-dimethylcyclohex-1-en-1-yl]methyl}piperazin-1-yl)-N-{[5-fluoro-6-(tetrahydro-2H-pyran-4-ylmethoxy)pyridin-3-yl]sulfonyl}-2-(1H-indazol-4-yloxy)benzamide] are 0.033 nM, 75.4 nM and 2287.2.
As for `CC1(C)CCC(CN2CCN(c3ccc(C(=O)NS(=O)(=O)c4cnc(OCC5COCCO5)c(Cl)c4)c(Oc4cccc5[nH]ncc45)c3)CC2)=C(c2ccc(Cl)cc2)C1` (stereo not drawn) [Example 488, N-{[5-chloro-6-(1,4-dioxan-2-ylmethoxy)pyridin-3-yl]sulfonyl}-4-(4-{[2-(4-chlorophenyl)-4,4-dimethylcyclohex-1-en-1-yl]methyl}piperazin-1-yl)-2-(1H-indazol-4-yloxy)benzamide], in experiment [1], the Ki is below 0.01 nM and the “Binding selectivity ratio” value is on record as above 2345.9. In experiment [2], this compound came in with a Ki of 23.5 nM.
`CC1(C)CCC(CN2CCN(c3ccc(C(=O)NS(=O)(=O)c4cnc(OCC5(O)CCC(F)(F)CC5)c(Cl)c4)c(Oc4cccc5[nH]ncc45)c3)CC2)=C(c2ccc(Cl)cc2)C1` [Example 490, N-({5-chloro-6-[(4,4-difluoro-1-hydroxycyclohexyl)methoxy]pyridin-3-yl}sulfonyl)-4-(4-{[2-(4-chlorophenyl)-4,4-dimethylcyclohex-1-en-1-yl]methyl}piperazin-1-yl)-2-(1H-indazol-4-yloxy)benzamide]: in experiment [1], the Ki was 1.14 nM and the “Binding selectivity ratio” value worked out at 92.7. Moreover, the Ki in experiment [2] came out at 106 nM.
On the same counts, the results for `CC1(C)CCC(CN2CCN(c3ccc(C(=O)NS(=O)(=O)c4cnc(OCC5CC5(F)F)c(Cl)c4)c(Oc4cccc5[nH]ncc45)c3)CC2)=C(c2ccc(Cl)cc2)C1` (stereo not drawn) [Example 491, N-({5-chloro-6-[(2,2-difluorocyclopropyl)methoxy]pyridin-3-yl}sulfonyl)-4-(4-{[2-(4-chlorophenyl)-4,4-dimethylcyclohex-1-en-1-yl]methyl}piperazin-1-yl)-2-(1H-indazol-4-yloxy)benzamide] are 0.017 nM, 4600.5 and 77.2 nM.
On to `CC1(C)CCC(CN2CCN(c3ccc(C(=O)NS(=O)(=O)c4cnc(OC[C@H]5CC[C@H](C#N)CC5)c(Cl)c4)c(Oc4cccc5[nH]ncc45)c3)CC2)=C(c2ccc(Cl)cc2)C1` [Example 492, N-({5-chloro-6-[(trans-4-cyanocyclohexyl)methoxy]pyridin-3-yl}sulfonyl)-4-(4-{[2-(4-chlorophenyl)-4,4-dimethylcyclohex-1-en-1-yl]methyl}piperazin-1-yl)-2-(1H-indazol-4-yloxy)benzamide], for which the Ki in experiment [1] was below 0.01 nM; in experiment [2], 45.1 nM. Moreover, the “Binding selectivity ratio” value in experiment [1] is recorded as above 4509.6.
On the same counts, the results for `CC1(C)CCC(CN2CCN(c3ccc(C(=O)NS(=O)(=O)c4cnc(OCC5CCC(C)(O)CC5)c(Cl)c4)c(Oc4cccc5[nH]ncc45)c3)CC2)=C(c2ccc(Cl)cc2)C1` (stereo not drawn) [Example 493, N-({5-chloro-6-[(cis-4-hydroxy-4-methylcyclohexyl)methoxy]pyridin-3-yl}sulfonyl)-4-(4-{[2-(4-chlorophenyl)-4,4-dimethylcyclohex-1-en-1-yl]methyl}piperazin-1-yl)-2-(1H-indazol-4-yloxy)benzamide] are below 0.01 nM, 41.9 nM and above 4188.3.
Consider `CC1(C)CCC(CN2CCN(c3ccc(C(=O)NS(=O)(=O)c4cnc(OCC5CCC(C)(O)CC5)c(Cl)c4)c(Oc4cccc5[nH]ncc45)c3)CC2)=C(c2ccc(Cl)cc2)C1` (stereo not drawn) [Example 494, N-({5-chloro-6-[(trans-4-hydroxy-4-methylcyclohexyl)methoxy]pyridin-3-yl}sulfonyl)-4-(4-{[2-(4-chlorophenyl)-4,4-dimethylcyclohex-1-en-1-yl]methyl}piperazin-1-yl)-2-(1H-indazol-4-yloxy)benzamide], for which, in experiment [1], the inhibition constant (Ki) was below 0.01 nM and the “Binding selectivity ratio” value was above 1556.6. Besides, in experiment [2], the affinity corresponds to a Ki of 15.6 nM.
